Assay results published in article PMC10619133, “The catechol moiety of obafluorin is essential for antibacterial activity” (RSC Chemical Biology, 2023).
Converted amounts (≈) assume the structure as drawn. “Also recorded” adds a separate entry of the source. Like-named read-outs stand apart in the source and are kept apart here.

Tests used:
MRSA = experiment: Spot-on-lawn MIC bioassay; assay type: cell-based, Methicillin-resistant Staphylococcus aureus; conditions: for MIC: Staphylococcus aureus, MRSA, read-out: MIC
Procedure: (§1) Indicator strains were grown for 16–18 h in LB (5 mL) by inoculation from a single colony. An aliquot of the resulting culture (500 μL) was then used to inoculate LB (50 mL in 250 mL Erlenmeyer flasks), followed by orbital shaking at 250 rpm until they reached an OD600 of 0.3–0.4. These cultures were then diluted 1 : 10 with molten soft nutrient agar (SNA), before pouring into appropriately sized Petri dishes to set. Serial dilutions of the test compounds (from 256 μg mL^−1 to 1 μg mL^−1 plus an additional sample at 1000 μg mL^−1) were prepared in acetonitrile (ACN), and 4 μL of each sample was applied directly onto the SNA surface. Kanamycin (50 μg mL^−1), apramycin (50 μg mL^−1) or aureobasidin A (0.2 μg mL^−1) were used as positive controls, as appropriate, and ACN or water (4 μL) were used as negative controls. […] Experiments were carried out in at least triplicate for each strain.
(§2) The method was the same as for the antibacterial MIC assays described above, with the following modifications: for excess iron, Fe(NO3)3·9H2O stock (400 mM) was added to give a final concentration of 1.5 or 2.0 mM; for iron depletion, bipy stock (1 M) was added to give a final concentration of 150 μM. For MRSA, 1 was further diluted to 0.5 0.25 and 0.125 μg mL^−1 due to a decrease in MIC under excess iron conditions. The general effect of excess iron on the activity of alternative antibiotics was determined by performing a similar serial dilution of carbenicillin, kanamycin, streptomycin, nitrofurantoin and chloramphenicol in the presence of Fe^3+.

B. subtilis = experiment: Spot-on-lawn MIC bioassay; assay type: cell-based, B. subtilis EC 1524; conditions: Bacillus subtilis, standard conditions, read-out: MIC
Procedure: as §1

E. coli 25922 = experiment: Spot-on-lawn MIC bioassay; assay type: cell-based, E. coli ATCC 25922
Procedure: as §1, §2

S. cerevisiae = experiment: Spot-on-lawn MIC bioassay; assay type: cell-based, S. cerevisiae NCYC 2939; conditions: Saccharomyces cerevisiae
Procedure: as §1

E. coli BW25113 = experiment: Spot-on-lawn MIC bioassay; assay type: cell-based; conditions: for MIC: Escherichia coli
Procedure: as §1, §2

P. aeruginosa PA01 = experiment: Spot-on-lawn MIC bioassay; assay type: cell-based; conditions: for MIC: Pseudomonas aeruginosa
Procedure: as §1, §2

E. coli BW25113 Δ3 = experiment: Spot-on-lawn MIC bioassay, TBDT knock-out mutant; assay type: cell-based; conditions: for MIC: Escherichia coli
Procedure: as §1, §2

E. coli BW25113 Δ6 = experiment: Spot-on-lawn MIC bioassay, TBDT knock-out mutant; assay type: cell-based; conditions: for MIC: Escherichia coli
Procedure: as §1, §2

EcThrRS = target: T1, EcThrRS (Escherichia coli, UniProt P0A8M3); experiment: Aminoacylation assay; assay type: biochemical, E. coli; conditions: enzyme 10 nM
T1 construct: His6 (N); made in house; host or cells: E. coli NiCo21(DE3)
T1 sequence (P0A8M3 whole entry): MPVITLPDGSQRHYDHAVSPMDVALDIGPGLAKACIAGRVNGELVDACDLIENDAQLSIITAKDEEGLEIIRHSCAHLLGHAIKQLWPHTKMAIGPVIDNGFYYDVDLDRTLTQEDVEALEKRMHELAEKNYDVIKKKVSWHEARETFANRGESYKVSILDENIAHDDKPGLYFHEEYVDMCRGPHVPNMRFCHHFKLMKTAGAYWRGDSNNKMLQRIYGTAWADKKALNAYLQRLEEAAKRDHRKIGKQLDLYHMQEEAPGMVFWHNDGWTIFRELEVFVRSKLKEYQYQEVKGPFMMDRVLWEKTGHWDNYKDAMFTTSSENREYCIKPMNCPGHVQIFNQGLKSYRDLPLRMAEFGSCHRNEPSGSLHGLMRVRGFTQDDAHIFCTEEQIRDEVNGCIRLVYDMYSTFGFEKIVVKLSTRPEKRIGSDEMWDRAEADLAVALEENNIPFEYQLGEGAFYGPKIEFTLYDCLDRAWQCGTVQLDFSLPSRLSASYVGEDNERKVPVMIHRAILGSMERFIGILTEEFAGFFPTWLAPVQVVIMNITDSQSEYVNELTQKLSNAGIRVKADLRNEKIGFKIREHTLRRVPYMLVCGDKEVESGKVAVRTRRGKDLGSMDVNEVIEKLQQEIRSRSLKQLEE
Procedure: (§3) To measure the effects of 1–4 on ThrRS canonical tRNA charging activity, an assay modified from that reported by Ruan et al.[53] was used, where active enzyme was incubated with its necessary substrates and its activity measured using ^14C labeled Thr and a liquid scintillation counter. Purified ThrRS protein (10 nM) was pre-incubated with varying concentrations of compounds 1–4 or ACN for 10 min. After pre-incubation, ThrRS samples were added to a master reaction mixture with the final component concentrations of HEPES (100 mM, pH 7.0), ATP (4 mM), MgCl2 (10 mM), L-[U-^14C]threonine (50 μM, Moravek Inc.), and tRNA^Thr (5 μM). This mixture was incubated at room temperature for 10 min, with samples taken at 1, 2.5, 5, and 10 min. At each time point, a 7 μL aliquot was spotted onto a 5% trichloroacetic acid (TCA) presoaked 3 MM Whatman paper (Cytiva) squares (repeated in triplicate). After allowing the spots to dry, the Whatman paper was washed three times with 5% TCA, and once with 95% EtOH. The Whatman paper was dried and the counts on each square of paper analyzed using a Tri-Carb 2910 TR liquid scintillation counter using Hydrofluor Liquid Scintillation Fluid (National Diagnostics). To calculate IC50 values, fractional initial velocities (velocity of inhibited reaction/velocity in the absence of inhibitor) were plotted against the log of 1 concentration and then fitted to eqn (1), using GraphPad Prism.1 [drawing 1]

ObaO = experiment: Aminoacylation assay; assay type: biochemical, P. fluorescens
Procedure: as §3

PfThrRS = PfThrRS (Pseudomonas fluorescens, UniProt C3JZN7); experiment: Aminoacylation assay; assay type: biochemical, P. fluorescens; conditions: enzyme 10 nM; read-out: concentration of full inhibition
Sequence of PfThrRS (C3JZN7 whole entry): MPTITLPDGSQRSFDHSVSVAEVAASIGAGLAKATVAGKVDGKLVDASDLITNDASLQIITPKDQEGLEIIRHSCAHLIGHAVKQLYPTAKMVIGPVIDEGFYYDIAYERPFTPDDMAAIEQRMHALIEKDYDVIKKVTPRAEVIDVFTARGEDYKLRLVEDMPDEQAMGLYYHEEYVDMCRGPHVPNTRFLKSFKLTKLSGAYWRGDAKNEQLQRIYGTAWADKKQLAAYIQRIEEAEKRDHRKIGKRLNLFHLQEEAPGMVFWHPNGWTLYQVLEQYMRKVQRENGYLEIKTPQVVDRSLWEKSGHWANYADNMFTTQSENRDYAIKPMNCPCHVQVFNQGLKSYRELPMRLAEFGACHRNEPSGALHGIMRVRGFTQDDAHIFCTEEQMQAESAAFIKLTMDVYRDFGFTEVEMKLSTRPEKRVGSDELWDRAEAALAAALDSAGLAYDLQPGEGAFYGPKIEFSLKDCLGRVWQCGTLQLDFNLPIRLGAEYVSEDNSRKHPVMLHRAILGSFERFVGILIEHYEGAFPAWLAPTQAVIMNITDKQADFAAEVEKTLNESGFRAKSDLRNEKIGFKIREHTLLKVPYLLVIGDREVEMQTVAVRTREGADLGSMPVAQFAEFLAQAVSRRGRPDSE
Procedure: as §3

Streptococcus pyogenes = tested on: Streptococcus pyogenes; parameters: method as in doi:10.1021/jo00350a010; conditions: dosed systemically; cited from earlier work
[1] = with vs without Fe^3+ in growth agar
[2] = BW25113, iron depleted, +bipy (150 μM)
[3] = BW25113, iron replete, +Fe^3+ (2 mM)

For `O=C(N[C@@H]1C(=O)O[C@@H]1Cc1ccc([N+](=O)[O-])cc1)c1cccc(O)c1O` [compound 1, Obafluorin], the MIC (MRSA; +Fe^3+ (2 mM) in the media) was 0.25 µg/mL (≈ 0.698 µM), the MIC (MRSA; spot-on-lawn, standard conditions) was 2 µg/mL (≈ 5.58 µM) and the “decrease in MIC with added Fe^3+” value (MRSA; [1]) was 8 fold. For the same molecule, the MIC (B. subtilis) was 4 µg/mL (≈ 11.2 µM), the MIC (E. coli 25922; Escherichia coli, 25922, iron depleted, +bipy (150 μM)) was 256 µg/mL (≈ 714 µM) and the MIC (E. coli 25922; Escherichia coli, 25922, +Fe^3+ (2 mM) in the media, read-out: MIC) was ≤ 1 µg/mL. The MIC (E. coli 25922; Escherichia coli, 25922, spot-on-lawn, standard conditions) was 256 µg/mL (≈ 714 µM), the “decrease in MIC with added Fe^3+” value (E. coli 25922; [1]) was ≥ 256 fold and the MIC (S. cerevisiae; Figure S12 legend, read-out: Minimum inhibitory concentration) was 1000 µg/mL (≈ 2790 µM). For the same molecule, the MIC (S. cerevisiae; standard conditions, read-out: MIC) was 1000 µg/mL (≈ 2790 µM), the MIC (E. coli BW25113; [2]) was 256 µg/mL (≈ 714 µM) and the MIC (E. coli BW25113; BW25113, iron replete, +Fe^3+ (2 mM), read-out: MIC) was ≤ 1 µg/mL. The MIC (E. coli BW25113; BW25113, standard conditions) was 256 µg/mL (≈ 714 µM), the “decrease in MIC upon addition of Fe^3+” value (E. coli BW25113; with vs without Fe^3+) was ≥ 256 fold and the MIC (P. aeruginosa PA01; PA01, +Fe^3+ (1.5 mM) in the media) was ≤ 1 µg/mL. The MIC (P. aeruginosa PA01; PA01, spot-on-lawn, standard conditions) was 128 µg/mL (≈ 357 µM), the “decrease in MIC with added Fe^3+” value (P. aeruginosa PA01; [1]) was ≥ 128 fold and the MIC (E. coli BW25113 Δ3; [2]) was 256 µg/mL (≈ 714 µM). For the same molecule, the MIC (E. coli BW25113 Δ3; [3]) was ≤ 1 µg/mL, the MIC (E. coli BW25113 Δ3; BW25113, standard conditions) was 256 µg/mL (≈ 714 µM) and the “decrease in MIC upon addition of Fe^3+” value (E. coli BW25113 Δ3; with vs without Fe^3+) was ≥ 256 fold. For the same molecule, the MIC (E. coli BW25113 Δ6; [3]) was ≤ 1 µg/mL, the MIC (E. coli BW25113 Δ6; BW25113, standard conditions) was 256 µg/mL (≈ 714 µM) and the “decrease in MIC upon addition of Fe^3+” value (E. coli BW25113 Δ6; with vs without Fe^3+) was ≥ 256 fold. For the same molecule, the “concentration at which complete inhibition was observed” value (EcThrRS) was “around 100 nM”, the IC50 (EcThrRS; 10 min preincubation with compound, read-out: IC50) was 35 ± 4 nM and the “inhibition of aminoacylation (in words)” value (ObaO; 0–5 μM (up to 5000 nM)) was “no observable inhibition; also recorded: no significant inhibition”. The IC50 (ObaO; enzyme 10 nM, 10 min preincubation, 0–5 μM compound) was “not inhibited; also recorded: No inhibition”, the IC100 (PfThrRS) was 0.01 µM and the “protection of infected mice (in words)” value (Streptococcus pyogenes) was “can protect mice”. The “toxicity in mice (in words)” value (Streptococcus pyogenes) was “no observable toxicity”.
